Data reported in ChEMBL document CHEMBL4425196, “Synthesis of novel flavone derivatives possessing substituted benzamides and their biological evaluation against human cancer cells” (Bioorg Med Chem Lett, 2016).
The source made the active and inactive calls. The rule behind the calls is not given here.

Tests used:
HepG2 [1] = assay: Growth inhibition of human HepG2 cells at 10 uM by MTT assay relative to control; format: functional; conditions: for inhibition of growth at 10 µM: read-out: GI
MCF7 [2] = assay: Growth inhibition of human MCF7 cells at 10 uM by MTT assay relative to control; format: functional; conditions: for inhibition of growth at 10 µM: read-out: GI
HepG2 [3] = assay: Growth inhibition of human HepG2 cells by MTT assay; format: functional
MCF7 [4] = assay: Growth inhibition of human MCF7 cells by MTT assay; format: functional
[5] = Growth inhibition of human L-132 cells by MTT assay; format: cell-based, L132
[6] = Selectivity index, ratio of GI50 for human L-132 cells to GI50 for human MCF7 cells
[7] = Selectivity index, ratio of GI50 for human L-132 cells to GI50 for human HepG2 cells

## COc1cc2oc(-c3ccc(NC(=O)c4ccc([N+](=O)[O-])cc4)cc3)cc(=O)c2c(O)c1OC
HepG2 [1]
  inhibition of growth at 10 µM: 40%
MCF7 [2]
  inhibition of growth at 10 µM: < 50%

## COc1cc2oc(-c3cccc(NC(=O)c4cccc(Br)c4)c3)cc(=O)c2c(O)c1OC
HepG2 [1]
  inhibition of growth at 10 µM: > 50%
MCF7 [2]
  inhibition of growth at 10 µM: > 50%
HepG2 [3]
  GI50: 44.8 µM
MCF7 [4]
  GI50: 6.94 µM

## COc1cc2oc(-c3cccc(NC(=O)c4ccc5c(c4)OCO5)c3)cc(=O)c2c(OC)c1OC
HepG2 [1]
  inhibition of growth at 10 µM: > 50%
MCF7 [2]
  inhibition of growth at 10 µM: > 50%
HepG2 [3]
  GI50: 5.94 µM
MCF7 [4]
  GI50: 9.12 µM
[5]
  GI50: 18 µM
[6]
  RatioGI50: 2 - 3
[7]
  RatioGI50: 2 - 3

## COc1cc2oc(-c3cccc(NC(=O)c4ccc(C(F)(F)F)cc4)c3)cc(=O)c2c(OC)c1OC
HepG2 [1]
  inhibition of growth at 10 µM: > 50%
MCF7 [2]
  inhibition of growth at 10 µM: > 50%
HepG2 [3]
  GI50: 61.1 µM
MCF7 [4]
  GI50: 10.6 µM

## COc1cc2oc(-c3ccc(NC(=O)c4ccc5c(c4)OCO5)cc3)cc(=O)c2c(O)c1OC
HepG2 [1]
  inhibition of growth at 10 µM: 40%
MCF7 [2]
  inhibition of growth at 10 µM: < 50%

## COc1cc2oc(-c3cccc(NC(=O)c4ccc(F)cc4)c3)cc(=O)c2c(OC)c1OC
HepG2 [1]
  inhibition of growth at 10 µM: > 50%
MCF7 [2]
  inhibition of growth at 10 µM: > 50%
HepG2 [3]
  GI50: 47.2 µM
MCF7 [4]
  GI50: 14.7 µM

## COc1cc2oc(-c3ccc(NC(=O)c4ccc(C#N)cc4)cc3)cc(=O)c2c(O)c1OC
HepG2 [1]
  inhibition of growth at 10 µM: < 50%
MCF7 [2]
  inhibition of growth at 10 µM: < 50%

## COc1cc2oc(-c3ccc(NC(=O)c4ccc(C)cc4)cc3)cc(=O)c2c(O)c1OC
HepG2 [1]
  inhibition of growth at 10 µM: < 50%
MCF7 [2]
  inhibition of growth at 10 µM: < 50%

## COc1cc([C@@H]2c3cc4c(cc3[C@@H](O[C@@H]3O[C@@H]5CO[C@@H](C)O[C@H]5[C@H](O)[C@H]3O)[C@H]3COC(=O)[C@H]23)OCO4)cc(OC)c1O [ETOPOSIDE]
[5]
  GI50: 10.4 µM

## COc1cc2oc(-c3ccc(NC(=O)c4ccccc4Br)cc3)cc(=O)c2c(O)c1OC
HepG2 [1]
  inhibition of growth at 10 µM: < 50%
MCF7 [2]
  inhibition of growth at 10 µM: < 50%

## COc1cccc(C(=O)Nc2cccc(-c3cc(=O)c4c(O)c(OC)c(OC)cc4o3)c2)c1
HepG2 [1]
  inhibition of growth at 10 µM: > 50%
MCF7 [2]
  inhibition of growth at 10 µM: > 50%
HepG2 [3]
  GI50: > 100 µM
MCF7 [4]
  GI50: 35.6 µM

## COc1cc2oc(-c3cccc(NC(=O)c4ccc(Br)cc4)c3)cc(=O)c2c(OC)c1OC
HepG2 [1]
  inhibition of growth at 10 µM: > 50%
MCF7 [2]
  inhibition of growth at 10 µM: > 50%
HepG2 [3]
  GI50: 8.85 µM
MCF7 [4]
  GI50: 9.65 µM

## COC(=O)c1ccc(C(=O)Nc2ccc(-c3cc(=O)c4c(O)c(OC)c(OC)cc4o3)cc2)cc1
HepG2 [1]
  inhibition of growth at 10 µM: < 50%
MCF7 [2]
  inhibition of growth at 10 µM: < 50%

## COc1ccc(C(=O)Nc2ccc(-c3cc(=O)c4c(O)c(OC)c(OC)cc4o3)cc2)cc1
HepG2 [1]
  inhibition of growth at 10 µM: < 50%
MCF7 [2]
  inhibition of growth at 10 µM: < 50%

## COc1cc2oc(-c3cccc(NC(=O)c4ccc(Cl)cc4)c3)cc(=O)c2c(OC)c1OC
HepG2 [1]
  inhibition of growth at 10 µM: > 50%
MCF7 [2]
  inhibition of growth at 10 µM: > 50%
HepG2 [3]
  GI50: 21.3 µM
MCF7 [4]
  GI50: 8.78 µM

## COc1cc2oc(-c3cccc(NC(=O)c4ccc5c(c4)OCO5)c3)cc(=O)c2c(O)c1OC
HepG2 [1]
  inhibition of growth at 10 µM: > 50%
MCF7 [2]
  inhibition of growth at 10 µM: > 50%
HepG2 [3]
  GI50: 45.1 µM
MCF7 [4]
  GI50: 8.47 µM

## COc1cc2oc(-c3ccc(NC(=O)c4ccc(Br)cc4)cc3)cc(=O)c2c(O)c1OC
HepG2 [1]
  inhibition of growth at 10 µM: < 50%
MCF7 [2]
  inhibition of growth at 10 µM: < 50%

## COc1ccccc1C(=O)Nc1cccc(-c2cc(=O)c3c(O)c(OC)c(OC)cc3o2)c1
HepG2 [1]
  inhibition of growth at 10 µM: > 50%
MCF7 [2]
  inhibition of growth at 10 µM: > 50%
HepG2 [3]
  GI50: > 100 µM
MCF7 [4]
  GI50: 1.83 µM

## O=c1cc(-c2ccccc2)oc2cc(O)c(O)c(O)c12
HepG2 [1]
  growth inhibition (GI): inactive
MCF7 [2]
  growth inhibition (GI): inactive

## COc1ccc(C(=O)Nc2cccc(-c3cc(=O)c4c(O)c(OC)c(OC)cc4o3)c2)cc1
HepG2 [1]
  inhibition of growth at 10 µM: > 50%
MCF7 [2]
  inhibition of growth at 10 µM: > 50%
HepG2 [3]
  GI50: > 100 µM
MCF7 [4]
  GI50: 2.05 µM

## COc1cc2oc(-c3cccc(NC(=O)c4ccc([N+](=O)[O-])cc4)c3)cc(=O)c2c(OC)c1OC
HepG2 [1]
  inhibition of growth at 10 µM: > 50%
MCF7 [2]
  inhibition of growth at 10 µM: > 50%
HepG2 [3]
  GI50: 18.8 µM
MCF7 [4]
  GI50: 20.1 µM

## COc1cc2oc(-c3ccccc3)cc(=O)c2c(OC)c1OC [BAICALEIN TRIMETHYL ETHER]
HepG2 [1]
  inhibition of growth at 10 µM: > 50%
MCF7 [2]
  inhibition of growth at 10 µM: > 50%
HepG2 [3]
  GI50: 54 µM
MCF7 [4]
  GI50: 91.4 µM

## COc1cc2oc(-c3cccc(NC(=O)c4ccc(C)cc4)c3)cc(=O)c2c(OC)c1OC
HepG2 [1]
  inhibition of growth at 10 µM: > 50%
MCF7 [2]
  inhibition of growth at 10 µM: > 50%
HepG2 [3]
  GI50: 9.75 µM
MCF7 [4]
  GI50: 8.32 µM

## COc1ccc(C(=O)Nc2cccc(-c3cc(=O)c4c(OC)c(OC)c(OC)cc4o3)c2)cc1
HepG2 [1]
  inhibition of growth at 10 µM: > 50%
MCF7 [2]
  inhibition of growth at 10 µM: > 50%
HepG2 [3]
  GI50: 22.2 µM
MCF7 [4]
  GI50: 6.87 µM

## COc1cccc(C(=O)Nc2ccc(-c3cc(=O)c4c(O)c(OC)c(OC)cc4o3)cc2)c1
HepG2 [1]
  inhibition of growth at 10 µM: < 50%
MCF7 [2]
  inhibition of growth at 10 µM: < 50%

## COc1cc2oc(-c3cccc(NC(=O)c4ccccc4Br)c3)cc(=O)c2c(OC)c1OC
HepG2 [1]
  inhibition of growth at 10 µM: > 50%
MCF7 [2]
  inhibition of growth at 10 µM: > 50%
HepG2 [3]
  GI50: 23.1 µM
MCF7 [4]
  GI50: 55 µM

## COc1ccccc1C(=O)Nc1ccc(-c2cc(=O)c3c(O)c(OC)c(OC)cc3o2)cc1
HepG2 [1]
  inhibition of growth at 10 µM: < 50%
MCF7 [2]
  inhibition of growth at 10 µM: < 50%

## COc1cc2oc(-c3ccc(NC(=O)c4cccc(C#N)c4)cc3)cc(=O)c2c(O)c1OC
HepG2 [1]
  inhibition of growth at 10 µM: < 50%
MCF7 [2]
  inhibition of growth at 10 µM: < 50%

## COc1cc2oc(-c3cccc(NC(=O)c4ccccc4)c3)cc(=O)c2c(OC)c1OC
HepG2 [1]
  inhibition of growth at 10 µM: > 50%
MCF7 [2]
  inhibition of growth at 10 µM: > 50%
HepG2 [3]
  GI50: 11.7 µM
MCF7 [4]
  GI50: 12.1 µM

## COc1cccc(C(=O)Nc2cccc(-c3cc(=O)c4c(OC)c(OC)c(OC)cc4o3)c2)c1
HepG2 [1]
  inhibition of growth at 10 µM: > 50%
MCF7 [2]
  inhibition of growth at 10 µM: > 50%
HepG2 [3]
  GI50: 7.06 µM
MCF7 [4]
  GI50: 7.67 µM
[5]
  GI50: 20.9 µM
[6]
  RatioGI50: 2 - 3
[7]
  RatioGI50: 2 - 3

## COc1cc2oc(-c3ccc(NC(=O)c4ccc(F)cc4)cc3)cc(=O)c2c(O)c1OC
HepG2 [1]
  inhibition of growth at 10 µM: < 50%
MCF7 [2]
  inhibition of growth at 10 µM: < 50%

## COc1cc2oc(-c3ccc(NC(=O)c4cccc(Br)c4)cc3)cc(=O)c2c(O)c1OC
HepG2 [1]
  inhibition of growth at 10 µM: 40%
MCF7 [2]
  inhibition of growth at 10 µM: < 50%

## COc1ccccc1C(=O)Nc1cccc(-c2cc(=O)c3c(OC)c(OC)c(OC)cc3o2)c1
HepG2 [1]
  inhibition of growth at 10 µM: > 50%
MCF7 [2]
  inhibition of growth at 10 µM: > 50%
HepG2 [3]
  GI50: 7.53 µM
MCF7 [4]
  GI50: 15.3 µM

## COc1cc2oc(-c3cccc(NC(=O)c4ccc(C#N)cc4)c3)cc(=O)c2c(OC)c1OC
HepG2 [1]
  inhibition of growth at 10 µM: > 50%
MCF7 [2]
  inhibition of growth at 10 µM: > 50%
HepG2 [3]
  GI50: 10.2 µM
MCF7 [4]
  GI50: 12.7 µM

## COC(=O)c1ccc(C(=O)Nc2cccc(-c3cc(=O)c4c(OC)c(OC)c(OC)cc4o3)c2)cc1
HepG2 [1]
  inhibition of growth at 10 µM: > 50%
MCF7 [2]
  inhibition of growth at 10 µM: > 50%
HepG2 [3]
  GI50: > 100 µM
MCF7 [4]
  GI50: 30.3 µM

## COc1cc2oc(-c3cccc(NC(=O)c4cccc(Br)c4)c3)cc(=O)c2c(OC)c1OC
HepG2 [1]
  inhibition of growth at 10 µM: > 50%
MCF7 [2]
  inhibition of growth at 10 µM: > 50%
HepG2 [3]
  GI50: 10.9 µM
MCF7 [4]
  GI50: 6.34 µM

## COc1cc2oc(-c3ccc(NC(=O)c4ccc(C(F)(F)F)cc4)cc3)cc(=O)c2c(O)c1OC
HepG2 [1]
  inhibition of growth at 10 µM: < 50%
MCF7 [2]
  inhibition of growth at 10 µM: < 50%

## COc1cc2oc(-c3cccc(NC(=O)c4cccc(C#N)c4)c3)cc(=O)c2c(OC)c1OC
HepG2 [1]
  inhibition of growth at 10 µM: > 50%
MCF7 [2]
  inhibition of growth at 10 µM: > 50%
HepG2 [3]
  GI50: 11.9 µM
MCF7 [4]
  GI50: 41.7 µM

## COc1cc2oc(-c3ccc(NC(=O)c4ccccc4)cc3)cc(=O)c2c(O)c1OC
HepG2 [1]
  inhibition of growth at 10 µM: < 50%
MCF7 [2]
  inhibition of growth at 10 µM: < 50%

## COc1cc2oc(-c3ccc(NC(=O)c4ccc(Cl)cc4)cc3)cc(=O)c2c(O)c1OC
HepG2 [1]
  inhibition of growth at 10 µM: < 50%
MCF7 [2]
  inhibition of growth at 10 µM: < 50%
